These results are taken from PubChem BioAssay (NCI).

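The compound was tested at five concentrations on cells cultured in 96-well plates, with a 48-hour exposure period. The concentration for 50% growth inhibition is given as GI50. TGI marks complete inhibition of growth.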

Some test systems named below: A498 renal; HT29 colon; NCI-H23 lung; NCI-H522 lung; OVCAR-8 ovarian; PC-3 prostate; SF-539 CNS; SW-620 colon; UO-31 renal; HCC-2998 colon.
Holding throughout (assay): NCI-60 cell line screen, 48 h

As to `COc1ccc(/C=C/c2cnc3ccccc3n2)cc1OC`, the TGI in the experiment with A498 renal was greater than 100 µM; in the experiment with HT29 colon, greater than 100 µM; with NCI-H23 lung, greater than 100 µM; with NCI-H522 lung it was 69.5 µM; in the experiment on OVCAR-8 ovarian, greater than 100 µM; in the experiment with PC-3 prostate it was greater than 100 µM. The TGI with SF-539 CNS, with SW-620 colon and with UO-31 renal was greater than 100 µM throughout.

In the case of `C=C1C(=O)O[C@H]2[C@H]1CC/C(COC(=O)/C=C/c1c[nH]c3ccccc13)=C\CC[C@@]1(C)O[C@@H]21`, the GI50 in the experiment with A498 renal is 0.278 µM; in the experiment with HT29 colon, 0.195 µM; with NCI-H23 lung, 1.25 µM; in the experiment with NCI-H522 lung it was 0.186 µM; with OVCAR-8 ovarian, 0.191 µM; in the experiment on PC-3 prostate it was 0.329 µM. For the same compound, the GI50 with SF-539 CNS was 0.261 µM; with SW-620 colon it was 0.181 µM; with UO-31 renal, 0.157 µM. In addition, the TGI came to 1.13 µM with A498 renal; 0.416 µM in the experiment with HT29 colon; 4.32 µM in the experiment with NCI-H23 lung; 0.371 µM in the experiment with NCI-H522 lung; 0.421 µM with OVCAR-8 ovarian; 1.52 µM in the experiment on PC-3 prostate. In addition, the TGI was determined as 0.941 µM in the experiment on SF-539 CNS, 0.446 µM in the experiment on SW-620 colon and 0.294 µM with UO-31 renal.

With `CN(C)c1ccc(N=C(C#N)c2nc(N)nc(N3CCN(c4ccccc4)CC3)n2)cc1`, the GI50 is 26.6 µM in the experiment on HCC-2998 colon; 21.2 µM in the experiment on HT29 colon; greater than 50 µM in the experiment on NCI-H23 lung; greater than 50 µM in the experiment with NCI-H522 lung; 18 µM in the experiment with OVCAR-8 ovarian; 36.9 µM in the experiment on PC-3 prostate. Besides, the values for the GI50 in the experiment with SF-539 CNS, with SW-620 colon and in the experiment on UO-31 renal were 18.4 µM, 22.1 µM and greater than 18 µM, respectively. The TGI with HCC-2998 colon was greater than 50 µM; with HT29 colon, greater than 50 µM; with NCI-H23 lung, greater than 50 µM; in the experiment with NCI-H522 lung, greater than 50 µM; in the experiment on OVCAR-8 ovarian it was greater than 37.2 µM; with PC-3 prostate, greater than 50 µM. The TGI was greater than 50 µM in the experiment on SF-539 CNS, greater than 50 µM in the experiment with SW-620 colon and greater than 32.5 µM with UO-31 renal.

In the case of `CC(C)(O)CCC(O)C(C)(O)C1CCC2(O)C3=CC(=O)C4(O)CC(O)C(O)CC4(C)C3CCC12C` (centres undefined) (tested in a mixture with another compound), the TGI with A498 renal, with HT29 colon, with NCI-H23 lung, in the experiment on NCI-H522 lung, with OVCAR-8 ovarian and in the experiment on PC-3 prostate was greater than 100 µM throughout. Also, the TGI in the experiment on SF-539 CNS, with SW-620 colon and in the experiment with UO-31 renal was greater than 100 µM throughout.

Take `Cc1ccc(/C=C2\CN(Cc3cn(CCNc4ccnc5cc(Cl)ccc45)nn3)C/C(=C\c3ccc(C)cc3)C2=O)cc1`: the GI50 in the experiment with A498 renal was 0.85 µM; in the experiment on HCC-2998 colon, 1.92 µM; in the experiment with HT29 colon it was 1.91 µM; in the experiment on NCI-H522 lung it was 1.98 µM; with OVCAR-8 ovarian it was 2.03 µM; in the experiment with PC-3 prostate it was 1.75 µM. In addition, the GI50 in the experiment on SF-539 CNS was 1.79 µM; with UO-31 renal, 1.44 µM. In addition, the TGI was found to be 2.2 µM with A498 renal; 3.44 µM with HCC-2998 colon; 3.85 µM in the experiment on HT29 colon; 3.66 µM in the experiment with NCI-H522 lung; 4.85 µM in the experiment on OVCAR-8 ovarian; 3.74 µM in the experiment with PC-3 prostate. The results for the TGI in the experiment on SF-539 CNS and in the experiment on UO-31 renal were 3.26 µM and 2.85 µM, respectively.

As for `N=C1C(c2nc(-c3ccc(Br)cc3)cs2)=C(O)CN1CC1CCCO1` (centres undefined), the GI50 with A498 renal, in the experiment on HCC-2998 colon, in the experiment on HT29 colon, with NCI-H23 lung, with PC-3 prostate and in the experiment with SF-539 CNS was greater than 100 µM each time. In addition, the GI50 with UO-31 renal is greater than 100 µM. Besides, the TGI in the experiment on A498 renal, in the experiment with HCC-2998 colon, with HT29 colon, with NCI-H23 lung, in the experiment on PC-3 prostate and in the experiment with SF-539 CNS was greater than 100 µM in each case. This compound displayed a TGI in the experiment on UO-31 renal greater than 100 µM.

`CC1(C)N=C(N)N=C(N)N1c1ccc(OCCCCNC(=O)c2ccc(S(=O)(=O)F)cc2)c(Cl)c1`: the GI50 with A498 renal was greater than 100 µM; with HCC-2998 colon it was 35 µM; with HT29 colon, 4.19 µM; in the experiment with NCI-H522 lung, 10.5 µM; in the experiment on OVCAR-8 ovarian, 4.82 µM; in the experiment on PC-3 prostate, 0.743 µM. Besides, the GI50 is 7.11 µM with SF-539 CNS, 3.51 µM in the experiment with SW-620 colon and 48.8 µM in the experiment on UO-31 renal. Also, the TGI with A498 renal, with HCC-2998 colon, in the experiment with HT29 colon, with NCI-H522 lung, in the experiment on OVCAR-8 ovarian and with PC-3 prostate was greater than 100 µM in each case. Also, the TGI in the experiment with SF-539 CNS, in the experiment on SW-620 colon and in the experiment with UO-31 renal was greater than 100 µM throughout.

As to `CCCNc1cccc(-n2ncc3c(N/N=C/c4ccncc4)ncnc32)c1`, the GI50 was 1.12 µM in the experiment with A498 renal; greater than 25 µM in the experiment with HCC-2998 colon; 14.9 µM with HT29 colon; greater than 25 µM in the experiment with NCI-H23 lung; 1.44 µM with NCI-H522 lung; 11.7 µM with OVCAR-8 ovarian. Further, the GI50 is greater than 25 µM in the experiment with PC-3 prostate, greater than 8.45 µM in the experiment on SF-539 CNS and greater than 6.13 µM in the experiment on SW-620 colon. In addition, the TGI with A498 renal, in the experiment with HCC-2998 colon, in the experiment with HT29 colon, in the experiment on NCI-H23 lung, in the experiment with NCI-H522 lung and in the experiment with OVCAR-8 ovarian was greater than 25 µM each time. Further, the TGI in the experiment with PC-3 prostate, in the experiment on SF-539 CNS and in the experiment on SW-620 colon was greater than 25 µM throughout.

Regarding `C=Cc1cnc([N+](=O)[O-])n1C`, the TGI is 98.7 µM with A498 renal; greater than 100 µM with HCC-2998 colon; greater than 100 µM in the experiment with HT29 colon; greater than 100 µM in the experiment with NCI-H23 lung; greater than 100 µM in the experiment with OVCAR-8 ovarian; greater than 100 µM with PC-3 prostate. The TGI in the experiment with SF-539 CNS, with SW-620 colon and with UO-31 renal was greater than 100 µM throughout.
